Laboratory results published in the NIST ThermoML archive (doi:10.1021/je100508y).
Numbers after ± are expanded uncertainties.

Assays:
[1] = refractive index (Na D-line) (dimensionless); conditions: 298.15 K; 101.33 kPa; Liquid; Standard Abbe refractometry
[2] = 298.15 K; 101.33 kPa; Liquid

Row | Structure (SMILES) | refractive index [1] | mass density [2] [kg/m3]
1 | C1CCCCC1 [cyclohexane] | 1.4236 ± 0.00068 | 773.8 ± 0.25
2 | C1CCCCCCC1 [cyclooctane] | 1.45598 ± 0.0007 | 831.47 ± 0.73
3 | CC1CCCCC1 [methylcyclohexane] | 1.42062 ± 0.00068 | 765.02 ± 0.25

The next lines start with the values.

Row | refractive index [1] | mass density [2] [kg/m3] | Structure (SMILES)
4 | 1.4791 ± 0.0007 | 1237.23 ± 1.8 | CCOS(=O)(=O)[O-].CCn1cc[n+](C)c1 [1-ethyl-3-methylimidazolium ethyl sulfate]
5 | 1.49774 ± 0.00068 | 873.57 ± 0.17 | c1ccccc1 [benzene]
